In the assay the test system is tube foot preparations. The assay is described as follows: In vitro contraction of tube foot preparations. Also noted: species or system Asterias rubens. The following applies: words, ArBN 10^-9 to 10^-6 M. As to the method: ArBN (EPRRNYNRVFGPTY-NH2), ArBN5-14 (NYNRVFGPTY-NH2), and ArBNP65-81 (EPMPSSLALYIANLSP-NH2), were tested for effects on in vitro cardiac stomach and tube foot preparations from A. rubens. The preparations were dissected as described previously ([43], [59]–[61]), with the organs immersed in ice-cold artificial seawater during dissection. A description of the methods employed for investigation of in vitro effects of ArBN on cardiac stomach and tube foot preparations from A. rubens is included in SI Appendix, SI Methods. […]
Wax was removed from slides using xylene (3 × 10 min) and then slides were immersed in 100% ethanol (2 × 10 min). 0.3% hydrogen peroxide (VWR Chemicals, UK) in methanol was used to quench endogenous peroxidases for 30 min and then an ethanol series (90%, 70%, 50%), distilled water and PBST were used to rehydrate the tissue sections. 5% goat serum (Sigma-Aldrich, UK) made up in PBST was used for blocking for 2 h at room temperature. […]
All the dissected preparations were set up in an aerated organ bath filled with 20 ml artificial seawater maintained at approximately 11°C. Changes in the contractile state of preparations were detected by the transducer, which was linked via a bridge amplifier (FE221 Bridge Amp, ADInstruments Ltd, Oxford, UK) to data acquisition hardware (PowerLab 2/36, ADInstruments Ltd, Oxford, UK). […]

On to “EPMPSSLALYIANLSP-NH2 [ArBNP65-81, C-terminally amidated 16-residue peptide predicted to be derived from residues 65 to 81 of ArBNP]”, for which the “effect on tube foot preparations” value is on record as “neither ArBN5-14 nor ArBNP65-81 had any observable effect”. The entry for “NYNRVFGPTY-NH2 [ArBN5-14, C-terminally amidated 10-residue peptide corresponding to the C-terminal region of ArBN]” is “neither ArBN5-14 nor ArBNP65-81 had any observable effect”.

The values are drawn from article PMC12002301, “Discovery and functional characterization of a bombesin-type neuropeptide signaling system in an invertebrate” (Proceedings of the National Academy of Sciences of the …, 2025).
